{"source": "paper PMC12557365", "about": "(Journal of Medicinal Chemistry, 2025)", "key": {"SARS-CoV-2 3CL^pro": {"target": "SARS-CoV-2 3CL^pro (Severe acute respiratory syndrome coronavirus 2, UniProt P0DTD1)", "test": "biochemical", "assay_type": "biochemical"}, "SARS-CoV-2 variants": {"test_system": "SARS-CoV-2 variants", "test": "microbe, parasite or virus in culture", "assay_type": "cell-based"}, "[1]": {"test_system": "SARS-CoV-2 Omicron strains", "test": "microbe, parasite or virus in culture", "assay_type": "cell-based", "settings": "Severe acute respiratory syndrome coronavirus 2, Epithelial cell, read-out: EC90 against the Omicron variants in hAECs"}, "[2]": {"test_system": "rgSARS-CoV-2 with 3CL^pro mutations", "assay_type": "cell-based, SARS-CoV-2"}}, "note": "Like-named read-outs stand apart in the source and are kept apart here."}
{"smiles": "Cc1cncc(-n2c(=O)c(Cc3cc(F)c(F)c(F)c3)c(N3CCCC3)n(CC#N)c2=O)c1", "note": "[Compound 5, 2-(3-(5-Methylpyridin-3-yl)-2,4-dioxo-6-(pyrrolidin-1-yl)-5-(3,4,5-trifluorobenzyl)-3,4-dihydropyrimidin-1(2H)-yl)-acetonitrile]", "values": [{"measurement": "decrease in activity versus compound 4", "setting": "SARS-CoV-2 3CL^pro", "value": "> 10 -fold"}]}
{"smiles": "N#CCn1c(N2CC3(C2)CC(F)(F)C3)c(-c2ccc(F)c(Cl)c2)c(=O)n(-c2cncc(Cl)c2)c1=O", "note": "[Compound 17, [5-(3-Chloro-4-fluorophenyl)-3-(5-chloropyridin-3-yl)-6-(6,6-difluoro-2-azaspiro[3.3]-heptan-2-yl)-2,4-dioxo-3,4-dihydropyrimidin-1(2H)-yl]-acetonitrile]", "values": [{"measurement": "EC50", "setting": "SARS-CoV-2 variants; Severe acute respiratory syndrome coronavirus 2, VeroE6/TMPRSS2, read-out: EC50 against various SARS-CoV-2 variants", "value": "0.00227 to 0.0125", "unit": "µM"}, {"measurement": "EC90", "setting": "[1]", "value": "0.00231 to 0.00241", "unit": "µM"}]}
{"smiles": "Cn1cnc(Cn2c(=O)[nH]/c(=N\\c3cc4cn(C)nc4cc3Cl)n(Cc3cc(F)c(F)cc3F)c2=O)n1", "note": "[ensitrelvir]", "values": [{"measurement": "EC50", "setting": "SARS-CoV-2 variants", "value": "0.259 ± 0.041", "unit": "µM"}]}
{"smiles": "CC(C)(C)[C@H](NC(=O)C(F)(F)F)C(=O)N1C[C@H]2[C@@H]([C@H]1C(=O)N[C@H](C#N)C[C@@H]1CCNC1=O)C2(C)C", "note": "[nirmatrelvir, reference compound]", "values": [{"measurement": "EC50", "setting": "[2]", "value": "3.15 ± 1.01", "unit": "µM"}]}
{"smiles": "CCC(CC)COC(=O)[C@H](C)N[P@](=O)(OC[C@H]1O[C@@](C#N)(c2ccc3c(N)ncnn23)[C@H](O)[C@@H]1O)Oc1ccccc1", "note": "[remdesivir]", "values": [{"measurement": "EC50", "setting": "[2]", "value": "2.01 ± 0.08", "unit": "µM"}]}
